# Tests used:
# Renin = biological target: T1, Renin (Homo sapiens, UniProt P00797); assay: Renin-inhibitory activity, Method I (inhibition of Angiotensin I formation, RIA); format: biochemical; details: Table 2; 37°C, 4 hours, 1.25 mg/ml; read-out: Rate of inhibiting the formation of Angiotensin I determined by Method I
# T1 sequence (P00797 67-406): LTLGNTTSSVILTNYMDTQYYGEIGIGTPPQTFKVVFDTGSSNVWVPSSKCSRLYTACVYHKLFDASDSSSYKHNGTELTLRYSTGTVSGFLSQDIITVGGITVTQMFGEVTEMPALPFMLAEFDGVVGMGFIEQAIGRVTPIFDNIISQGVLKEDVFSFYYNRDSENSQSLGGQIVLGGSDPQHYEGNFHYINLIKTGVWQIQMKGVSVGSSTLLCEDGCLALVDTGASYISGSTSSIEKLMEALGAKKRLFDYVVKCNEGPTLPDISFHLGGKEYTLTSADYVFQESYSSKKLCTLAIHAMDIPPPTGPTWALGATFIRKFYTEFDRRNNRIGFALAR
# Description: Renin (see E. Haas et al. Circulation Research, Vol. 19, p. 739, 1966 and Vol. 31, p. 65, 1972) was incubated in Angiotensinogen at 37° C. for 2 to 6 hours. Similarly, renin was incubated under the same conditions in the presence of 0.313 to 2.5 mg/ml. of each of the test compounds listed above. The amount of Angiotensin I was measured by radioimmunoassay (RIA) (E. Haber et al., J. Clin. Endocrinol., Vol. 29, p. 1349, 1969), and made the renin activity.
# (§1) The results are shown in Table 1 (the rate of inhibiting the formation of Angiotensin I, as determined by Method I, when the plasma was incubated at 37° C. for 2, 4 and 6 hours respectively), and Table 2 (the rate of inhibiting the formation of Angiotensin I when the plasma was incubated at 37° C. for 4 hours, with the compound concentration of 1.25 mg/ml.)
# High renin plasma = biological target: T2, High renin plasma (Canis lupus familiaris, UniProt Q6DYE7); assay: Renin-inhibitory activity, Method II (high renin plasma of dog, inhibition of Angiotensin I formation); format: biochemical; details: Table 2; 37°C, 4 hours, 1.25 mg/ml; read-out: Rate of inhibiting the formation of Angiotensin I determined by Method II
# T2 construct: High renin plasma prepared by constriction of the renal artery of a dog anesthetized with Nembutal; from tissue; host or cells: plasma of a dog with constricted renal artery
# T2 sequence (Q6DYE7 66-403): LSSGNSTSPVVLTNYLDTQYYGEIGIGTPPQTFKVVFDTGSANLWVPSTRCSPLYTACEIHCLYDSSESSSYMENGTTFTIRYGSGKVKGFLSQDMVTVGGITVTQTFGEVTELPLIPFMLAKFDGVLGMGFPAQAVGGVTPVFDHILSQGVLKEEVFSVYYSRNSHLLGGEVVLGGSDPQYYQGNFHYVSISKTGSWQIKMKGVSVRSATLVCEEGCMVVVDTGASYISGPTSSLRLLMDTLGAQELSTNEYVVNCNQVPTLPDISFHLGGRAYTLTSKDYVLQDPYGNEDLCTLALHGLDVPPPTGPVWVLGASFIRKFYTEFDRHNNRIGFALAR
# Description: High renin plasma prepared by constriction of the renal artery of a dog anesthetized with Nembutal (the plasma which when incubated at 37°40 C. for 6 hours, yields 30 to […]. of Angiotensin I) was incubated at 37° C. for 2 to 6 hours in the same way as in Method I, and also under the same conditions in the presence of 1.25 mg/ml. of each of the test compounds.
# as §1
# renal hypertensive rats [1] = assay: Antihypertensive activity in renal hypertensive rats, i.m. (Table 3); format: in vivo, rat; details: 30 mg/kg/day i.m.
# Description: (§2) An aqueous solution or suspension in peanut oil of each test compound as administered intramuscularly (i.m.) or orally (p.o.) at a dose of 30 to 100 mg/kg (body weight)/day once every morning over the period of 6 to 7 days.
# (§3) The blood pressure of each rat was measured daily before and 5 hours after each administration. Furthermore, the blood pressure was measured every morning after drug withdrawal over a period of 3 to 6 days.
# (§4) Test compounds (1)-(4) decreased the blood pressure of renal hypertensive rats with a dose of 30 mg/kg/day i.m.. […] The antihypertensive rats with a dose of 100 mg/kg/day p.o..
# renal hypertensive rats [2] = assay: Antihypertensive activity in rats, p.o. (Table 4); format: in vivo, rat; details: 100 mg/kg/day p.o.
# Description: as §2, §3, §4
# plasma cholesterol level = assay: Cholesterol-lowering activity in rats (modified Greenberg method); format: in vivo, rat; details: 100 mg/Kg oral once a day, 5 consecutive days
# Description: The effect of each of the test compounds on the plasma cholesterol level was examined in rats according to a slightly modified form of the C. M. Greenberg et al. method described in Am. J. Physiol., Vol. 202 (1961), p. 732. Rats were treated once a day with a 100 mg/Kg oral dose for 5 consecutive days instead of 7 days.
# [3] = 1st day, 0 h (immediately before administration)
# [4] = 1st day, 5 hours after administration
# [5] = 2nd day, 5 hours after administration
# [6] = 3rd day, 0 h (immediately before administration)
# [7] = 3rd day, 5 hours after administration
# [8] = 4th day, 0 h (immediately before administration)
# [9] = 4th day, 5 hours after administration
# [10] = 5th day, 0 h (immediately before administration)
# [11] = 5th day, 5 hours after administration
# [12] = 6th day, 0 h (immediately before administration)
# [13] = 6th day, 5 hours after administration
# [14] = 2nd day, 0 h (immediately before administration)
inhibition at 1250 µg/mL (Renin) [%],inhibition at 1250 µg/mL (High renin plasma) [%],SMILES,Changes of blood pressure after drug withdrawal (renal hypertensive rats [1]; 1st day after withdrawal) [mmHg],Changes of blood pressure (renal hypertensive rats [1]; [3]) [mmHg],Changes of blood pressure (renal hypertensive rats [1]; [4]) [mmHg],Changes of blood pressure after drug withdrawal (renal hypertensive rats [1]; 2nd day after withdrawal) [mmHg],Changes of blood pressure (renal hypertensive rats [1]; [5]) [mmHg],Changes of blood pressure after drug withdrawal (renal hypertensive rats [1]; 3rd day after withdrawal) [mmHg],Changes of blood pressure (renal hypertensive rats [1]; [6]) [mmHg],Changes of blood pressure (renal hypertensive rats [1]; [7]) [mmHg],Changes of blood pressure (renal hypertensive rats [1]; [8]) [mmHg],Changes of blood pressure (renal hypertensive rats [1]; [9]) [mmHg],Changes of blood pressure (renal hypertensive rats [1]; [10]) [mmHg],Changes of blood pressure (renal hypertensive rats [1]; [11]) [mmHg],Changes of blood pressure (renal hypertensive rats [1]; [12]) [mmHg],Changes of blood pressure (renal hypertensive rats [1]; [13]) [mmHg],Cholesterol-lowering activity (plasma cholesterol level) [%],also measured
< 10,25,"CCCCCC=CCC=CCC=CCC=CCCCC(=O)OCC(COP(=O)(O)OCCN)OC(=O)CCCCCCCCCCCCCCCCC (racemic) [(a), rac-2-Octadecanoyl-3-(eicosa-5,8,11,14-tetraenoyl)glycero-1-phosphoryl ethanolamine, reference compound]",-14,0,-26,-3,-35,-1,-5,-29,-5,-34,-13,-33,-13,-43,0,"antihypertensive effect, oral administration (in words) (renal hypertensive rats [2]): did not show such an effect; Changes of blood pressure (renal hypertensive rats [2]; [3]): 0 mmHg; Changes of blood pressure (renal hypertensive rats [2]; [4]): +2 mmHg; Changes of blood pressure (renal hypertensive rats [2]; [14]): +1 mmHg; Changes of blood pressure (renal hypertensive rats [2]; [5]): +5 mmHg; Changes of blood pressure (renal hypertensive rats [2]; [6]): +2 mmHg; Changes of blood pressure (renal hypertensive rats [2]; [7]): -2 mmHg; Changes of blood pressure (renal hypertensive rats [2]; [8]): +1 mmHg; Changes of blood pressure (renal hypertensive rats [2]; [10]): +2 mmHg; Changes of blood pressure (renal hypertensive rats [2]; [11]): +2 mmHg; Changes of blood pressure (renal hypertensive rats [2]; [12]): +1 mmHg; Changes of blood pressure (renal hypertensive rats [2]; 7th day, 0 h (immediately before administration)): +1 mmHg; Changes of blood pressure (renal hypertensive rats [2]; 7th day, 5 hours after administration): +2 mmHg"
< 10,25,"CCC=CCC=CCC=CCCCCCCCC(=O)OCC(COP(=O)(O)OCCN)OC(=O)CCCCCCCCCCCCCCCCC (racemic) [(b), rac-2-Octadecanoyl-3-(octadeca-9,12,15-trienoyl)glycero-1-phosphoryl ethanolamine, reference compound]",-11,0,-32,-2,-25,-1,-8,-34,-7,-39,-8,-44,-10,-47,0,Changes of blood pressure (renal hypertensive rats [1]; [14]): -4 mmHg

# From patent US3985875A, “ω-(N-acylamino)alkylphosphoryl ethanolamines, pharmaceutical compositions containing them, and their uses” (Dainippon Pharmaceutical Co., Ltd., priority 1974, dated 1976)
